# Reference: US8778643B2, “Methods for increasing lipid levels and producing triacylglycerols in algae” (priority 2012, dated 2014)
# Where “and” joins values, the source holds several entries; their conditions need not be identical. Equal entries are not always repeated. Where two headings read alike, the source gives them in different places.
# What was measured:
# [1] = system: Nannochloropsis salina; conditions: for % Inc: increase of lipid production; for effect on lipid production / lipid levels: microplate assay, multiple concentrations
# [2] = system: Nannochloropsis oculata; conditions: for % Lipid increase based on Nile red fluorescence intensity: t=day 0; for % Increase based on Nile Red Fluorescence Intensity: added t=day 0; for effect on lipid production / lipid levels: microplate assay, multiple concentrations
# Experimental: (§1) Stock cultures were aerated by stirring with bubbling air (homemade manifold with Petco air pump, 2-4% CO2) or by orbital shaking (Thermo Scientific MAXQ 2000) at a constant speed of 150 rpm at 22±3° C. with a 16:8 hour light/dark cycle. Stocks were kept at stationary phase for use. Algae were prepared as dictated by culture center.
# (§2) Compounds were selected based on reported biological activity in non-microalgae organisms. To ensure that compounds retained their quality, they were stored under advised conditions after purchasing from the manufacturer. Solutions of all assay compounds were prepared as 10 mM stock solutions by dissolving in DMSO in 2-dram amber vials and then stored in darkness −20° C. 96-well PCR plates were used to create a stock plate layout that was then transferred to the algae microplates. A plate map was used to distribute each compound to a well based on molecule name, collection number, and CAS number. For 20 μM and 200 nM assay plates, 10 mM compound stock in DMSO was diluted into plate maps of 5 mM and 50 μM assay stocks, respectively.
# (§3) All materials for assay experiments were autoclaved before each use to maintain axenic algae cultures. Algae species were checked for homogeneity using a TS-100 light microscope (Nikon, Japan). […] Diluted stock solutions were made immediately prior to use for consistency and optimal plate growth. Cell density was measured on a Thermo Scientific Genesys 10S Vis Spectrophotometer (ThermoFisher, San Jose), using a 1 mL cuvette at 680 nm.
# (§4) Plates were originally run in triplicate, before replicates were increased to quadruplicate, along with a separate control plate to compare growth. Due to extensive evaporation in exterior wells over time, our unique algae plate layout was designed to use the 60 interior wells out of 96 wells for the experiment. The 36 outer wells were filled with Millipore water and media to prevent evaporation and edge effects in the inner algae wells, as well as serve as blanks. The 60 wells with algae contained a total volume of 251 μL (100 μL of media+DMSO compound stock +150 μL dilute algae stock). For 20 μM and 200 nM assay plates, 10 mM compound stock in DMSO is diluted into plate maps of 5 mM and 50 μM assay stocks, respectively. […] Plates were parafilmed during growth to limit the amount of evaporation that can occur. Plates were numbered, and numerically ordered to ensure they got the same shaker space.
# (§5) The shakers are kept at a constant shaking of 150 rpm. Ambient temperature is 22±3° C.
# [3] = system: Phaeodactylum tricornutum; assay: Microplate assay: growth (absorbance 680 nm) and intracellular lipids (Nile Red fluorescence); format: cell-based; conditions: for % Inc: increase of lipid production; for effect on lipid production / lipid levels: microplate assay, multiple concentrations; for Nile Red Fluorescence % Increase: initial screening, p<0.05
# Experimental: as §1, §2, §3, §4, §5
# [4] = system: Nannochloris sp.; assay: as above; format: cell-based; conditions: for effect on lipid production / lipid levels: microplate assay, multiple concentrations
# [5] = N. oculata, compounds tested at 200 nM, initial screening, p<0.05
# [6] = 200 nM, initial microplate screen, relative to control
# [7] = 20 μM, initial microplate screen, relative to control
# [8] = Nannochloris sp., compounds tested at 20 μM, initial screening, p<0.05
# [9] = 40 μM, dose-response microplate screen
# [10] = 10 μM, dose-response microplate screen
# [11] = 40 μM, initial microplate screen, relative to control
structure (smiles),measurement,setting,value
"COc1cc(C[C@H]2C(=O)OC[C@@H]2Cc2ccc(OC)c(OC)c2)ccc1O [Arctigenin, (3R,4R)-4-[(3,4-dimethoxyphenyl)methyl]-3-[(4-hydroxy-3-methoxyphenyl)methyl]-2-tetrahydrofuranone]",% Lipid increase based on Nile red fluorescence intensity,"[1]; N. salina, 370.4 nM, DMSO, t=day 0",64%
same,% Increase based on Nile Red Fluorescence Intensity,"[1]; N. salina, 13 nM, DMSO delivery, added t=day 0",59%
same,% Increase based on Nile Red Fluorescence Intensity,"[1]; N. salina, 370.4 nM, DMSO delivery, added t=day 0",64%
same,Nile Red Fluorescence % Increase,[2]; [5],152.2%
same,% Lipid increase based on Nile red fluorescence intensity,"[3]; P. tricornutum, 41.2 nM, DMSO, t=day 0",61%
same,% Increase based on Nile Red Fluorescence Intensity,"[3]; P. tricornutum, 41.2 nM, DMSO delivery, added t=day 0",61%
same,Absorbance (percent increase),[4]; [6],−3.4%
same,Nile Red percent increase,[4]; [6],66.0%
same,Absorbance (percent increase),[4]; [7],−5.4%
same,Nile Red percent increase,[4]; [7],79.0%
"C/C(=C\CNc1ncnc2nc[nH]c12)CO [Zeatin, (E)-2-methyl-4-(7H-purin-6-ylamino)but-2-en-1-ol]",% Increase based on Nile Red Fluorescence Intensity,[1],64% and 50%
same,% Lipid increase based on Nile red fluorescence intensity,[1],64%
same,Nile Red Fluorescence % Increase,[2],157.1%
same,% Increase based on Nile Red Fluorescence Intensity,[3],114%
same,% Lipid increase based on Nile red fluorescence intensity,[3],114%
N#CC(C#N)=Cc1cc(O)c(O)c(O)c1 [AG82],Nile Red Fluorescence % Increase,[2]; [5],144.5%
same,Nile Red Fluorescence % Increase,[4]; [8],54.2%
"O=C1NC(=O)c2c1c1c3ccccc3[nH]c1c1[nH]c3cc(Br)ccc3c21 [CDK4 I1, 2-Bromo-12,13-dihydro-5H-indolo[2,3-a]pyrrolo[3,4-c]carbazole-5,7(6H)-dione]",% Lipid increase based on Nile red fluorescence intensity,"[1]; N. salina, 40 μM, DMSO, t=day 0",49%
same,% Increase based on Nile Red Fluorescence Intensity,"[1]; N. salina, 40 μM, DMSO delivery, added t=day 0",49%
same,Nile Red percent increase,[3]; [9],129%
same,% Inc,"[3]; P. tricornutum, best conc. 10 μM",68.76%
"O=c1ccc2cc(O)c(O)cc2o1 [Esculetin, 6,7-Dihydroxy-2-chromenone]",% increase (lipid production),[1]; 0.0252-6.13 nM (H2O),5-31 (H2O) %
same,% increase (lipid production),"[1]; 0.0757-55.2 nM, DMSO delivery",1-30%
same,% Lipid increase based on Nile red fluorescence intensity,"[1]; N. salina, 6.13 nM, DMSO, t=day 0",62%
same,% Increase based on Nile Red Fluorescence Intensity,"[1]; N. salina, 681 pM, DMSO delivery, added t=day 0",50%
same,% Increase based on Nile Red Fluorescence Intensity,"[1]; N. salina, 6.13 nM, DMSO delivery, added t=day 0",62%
same,% increase (lipid production),[3]; 0.0252-18.4 nM,3-79%
"O=c1cc(-c2ccccc2)oc2cc(O)c(O)c(O)c12 [Baicalein, 5,6,7-Trihydroxy-2-phenyl-chromen-4-one]",% increase (lipid production),"[1]; 0.0252-55.2 nM, DMSO delivery",3-28%
same,% increase (lipid production),[1]; 0.0252-165.6 nM (H2O),6-30 (H2O) %
same,Nile Red Fluorescence % Increase,"[1]; N. salina, compounds tested at 20 μM, initial screening, p<0.05",37.3%
same,% increase (lipid production),[2]; 0.0252 nM,25%
same,% Lipid increase based on Nile red fluorescence intensity,"[2]; N. oculata, 25.2 pM, DMSO",52%
same,% Lipid increase based on Nile red fluorescence intensity,"[2]; N. oculata, 40 μM, (water)",76%
same,% Increase based on Nile Red Fluorescence Intensity,"[2]; N. oculata, 25.2 pM, DMSO delivery",52%
same,% Increase based on Nile Red Fluorescence Intensity,"[2]; N. oculata, 40 μM, dissolved in water",76%
same,Nile Red percent increase,"[3]; 0.0252 nM, dose-response microplate screen",105%
same,% increase (lipid production),[3]; 0.0252-55.2 nM,5-94%
"Oc1cc(O)c2c(c1)O[C@H](c1cc(O)c(O)c(O)c1)[C@H](O)C2 [(−)-epigallocatechin, (2R,3R)-2-(3,4,5-trihydroxyphenyl)-3,4-dihydro-2H-chromene-3,5,7-triol]",% Inc,"[1]; N. salina, best conc. 39 nM",216.15%
same,effect on lipid production / lipid levels,[1],reduction in lipids
same,effect on lipid production / lipid levels,[2],reduction in lipids
same,effect on lipid production / lipid levels,[3],reduction in lipids
same,effect on lipid production / lipid levels,[4],reduction in lipids
"Nc1cc2ncnc(Nc3cccc(Br)c3)c2cc1N [BPDQ, 4-[(3-bromophenyl)amino]-6,7-diamino-quinazoline]",Absorbance (percent increase),[1]; [6],−6.7%
same,Nile Red percent increase,[1]; [6],54.9%
same,% Lipid increase based on Nile red fluorescence intensity,"[1]; N. salina, concentration 6.0 (unit not given), DMSO, t=day 0",130%
same,% Increase based on Nile Red Fluorescence Intensity,"[1]; N. salina, 6.0 nM, DMSO delivery, added t=day 0",130%
same,% Increase based on Nile Red Fluorescence Intensity,"[1]; N. salina, 55 nM, DMSO delivery, added t=day 0",86%
same,% Lipid increase based on Nile red fluorescence intensity,"[3]; P. tricornutum, 400 fM, (water), t=day 0",63%
same,% Increase based on Nile Red Fluorescence Intensity,"[3]; P. tricornutum, 400 fM, dissolved in water, added t=day 0",63%
same,Absorbance (percent increase),[4]; [6],−6.5%
same,Nile Red percent increase,[4]; [6],75.8%
"c1ccc2ncncc2c1 [Quinazoline, Benzopyrimidine]",% increase (lipid production),[1]; […]-40 μM,(none)
same,% increase (lipid production),[3]; 4-40 μM (H2O),15-26 (H2O) %
"Oc1cc(O)c2c(c1)O[C@H](c1ccc(O)c(O)c1)[C@H](O)C2 [(−)-epicatechin, (−)-Epicatechin]",% Inc,"[1]; N. salina, best conc. 2.4 nM",147.90%
same,effect on lipid production / lipid levels,[1],lipid production increased
same,effect on lipid production / lipid levels,[2],lipid production increased
same,effect on lipid production / lipid levels,[3],lipid production increased
same,effect on lipid production / lipid levels,[4],lipid production increased
O=c1c(O)c(-c2ccc(O)c(O)c2)oc2cc(O)cc(O)c12 [Quercitin],% Inc,"[2]; increase of lipid production, N. oculata, best conc. 2.5 μM",67.10%
"CN(NO)C1=CC(=O)C(=O)C=C1 [3,4-dephostatin, 4-[(hydroxyamino)-methylamino]cyclohexa-3,5-diene-1,2-dione]",% increase (lipid production),[1]; 0.0252-55.2 nM,8-40%
same,% increase (lipid production),[1]; 0.0252-165.6 nM (H2O),14-72%
same,% increase (lipid production),[3]; 0.0252-165.6 nM (H2O),5-46%
same,% increase (lipid production),"[3]; 0.0252-165.6 nM, not marked H2O",12-33%
CNC[C@H](O)c1ccc(O)c(O)c1 [Epinephrine],Nile Red Fluorescence % Increase,[2],129.3%
same,Nile Red Fluorescence % Increase,[4],44.9%
"O=c1c(-c2ccc(O)cc2)coc2cc(O)cc(O)c12 [Genistein, 5,7-Dihydroxy-3-(4-hydroxyphenyl)chromen-4-one]",% increase (lipid production),[1]; […]-40 μM,11-85%
same,% increase (lipid production),[3]; 54 nM-40 μM (H2O),16-70%
"O=C(NCCCCCCNC(=O)ON=C1CCCCC1)ON=C1CCCCC1 [RHC80267, 1,6-bis(Cyclohexyloximinocarbonylamino)hexane]",% in NR fl,[1],71.52% and 68.33%
same,% change in abs,[2],12.83%
same,% in NR fl,[2],49.41%
same,% change in abs,[3],−6.46%
same,% in NR fl,[3],45.19%
"O=P(O)(O)Oc1ccc2ccccc2c1 [Napthyl acid phosphate, naphthalen-2-yl hydrogen phosphate]",% increase (lipid production),[2],18%
same,% Increase based on Nile Red Fluorescence Intensity,[3],51%
same,% Lipid increase based on Nile red fluorescence intensity,[3],51%
same,% increase (lipid production),[3],4% and 1-60%
"COc1cc(/C=C/C(=O)CC(=O)/C=C/c2ccc(O)c(OC)c2)ccc1O [Curcumin, (1E,6E)-1,7-bis (4-hydroxy-3-methoxyphenyl)-1,6-heptadiene-3,5-dione]",% increase (lipid production),[1]; 0.0252 nM-0.227 nM (H2O),5-9 (H2O) %
same,% increase (lipid production),"[1]; 18 nM-13 μM, DMSO delivery",18-69%
same,% increase (lipid production),[2]; 0.0252-0.0757 nM,4-10%
same,% Lipid increase based on Nile red fluorescence intensity,"[2]; N. oculata, 75.7 pM, DMSO",49%
same,% Increase based on Nile Red Fluorescence Intensity,"[2]; N. oculata, 75.7 pM, DMSO delivery",49%
same,% increase (lipid production),[3]; 6-494 nM,7-30%
"O=C(NCCN1CCC(n2c(=O)[nH]c3cc(Cl)ccc32)CC1)c1ccc(F)cc1 [Halopemide, N-[2-[4-(5-Chloro-2,3-dihydro-2-oxo-1H-benzimidazol-1-yl)piperidino]ethyl]-4-fluorobenzamide]",% change in abs,"[2]; N. oculata, 40 μM",−2.02%
same,% in NR fl,"[2]; N. oculata, 40 μM",55.13%
same,% change in abs,"[3]; P. tricornutum, 10 μM",−31.22%
same,% in NR fl,"[3]; P. tricornutum, 10 μM",73.94%
CC(O)C(=O)O (stereo not drawn) [Lactic Acid],Nile Red Fluorescence % Increase,[2]; [5],128.8%
same,Nile Red Fluorescence % Increase,[4]; [8],30.9%
O=C(O)/C=C/c1ccc(O)c(O)c1 [Caffeic acid],% increase (lipid production),"[1]; 0.0252 nM-165.6 nM, DMSO delivery",1-40%
same,% increase (lipid production),[1]; 0.0252-0.681 nM (H2O),62-110 (H2O) %
same,Nile Red percent increase,"[1]; 0.076-681 nM (H2O), dose-response microplate screen",96-117%
same,increase in lipid production,"[1]; diluted in water, microplate",more than 100%
same,optimal effective concentration (lipid production),[1]; lipoxygenase inhibitor microplate screen,0.22 to 0.68 nM
same,lipid increase,"[1]; with DMSO, microplate",< 20%
same,% increase (lipid production),[2]; 0.681 nM,5%
same,% increase (lipid production),[3]; 6-165 nM,13-205%
same,% Lipid increase based on Nile red fluorescence intensity,"[3]; P. tricornutum, 4 μM, (water), t=day 0",94%
same,% Increase based on Nile Red Fluorescence Intensity,"[3]; P. tricornutum, 4 μM, dissolved in water, added t=day 0",94%
same,effect on lipid production / lipid levels,[3],minimal effect on lipid production
NS(=O)(=O)c1ccc(N/N=C2\C(=O)Nc3ccc(Br)cc32)cc1 [CDK2 I2],Nile Red percent increase,[1]; [10],121%
same,Nile Red percent increase,[1]; [9],271%
same,Absorbance (percent increase),[3]; [6],−7.9%
same,Nile Red percent increase,[3]; [6],50.3%
same,Nile Red percent increase,"[3]; 2.5 μM, dose-response microplate screen",160%
same,Nile Red percent increase,[3]; [10],140%
same,Nile Red percent increase,[3]; [9],380%
same,Absorbance (percent increase),[3]; [11],−14.6%
same,Nile Red percent increase,[3]; [11],150.6%
same,% Lipid increase based on Nile red fluorescence intensity,"[3]; P. tricornutum, 40 μM, DMSO, t=day 0",347%
same,Nile Red Fluorescence % Increase,"[3]; P. tricornutum, compounds tested at 200 nM",50.3%
same,Nile Red Fluorescence % Increase,"[3]; P. tricornutum, compounds tested at 40 μM",150.6%
same,% Increase based on Nile Red Fluorescence Intensity,"[3]; P. tricornutum, 10 μM, DMSO delivery, added t=day 0",86%
same,% Increase based on Nile Red Fluorescence Intensity,"[3]; P. tricornutum, 40 μM, DMSO delivery, added t=day 0",347%
same,% Inc,"[3]; P. tricornutum, best conc. 2.5 μM",163.88%
same,Nile Red percent increase,"[4]; 40 nM-40 μM, dose-response microplate screen",110-210%
same,Absorbance (percent increase),[4]; [6],−14.0%
same,Nile Red percent increase,[4]; [6],103.2%
